Reference: patent US20110144127A1, “AGENTS FOR TREATMENT OF GLAUCOMATOUS RETINOPATHY AND OPTIC NEUROPATHY” (ALCON INC., priority 2003, published 2011)

How the values were obtained:
[1] = test system: cultured adult rat retinal ganglion cells; test: Glutamate-induced toxicity in cultured adult rat retinal ganglion cells (survival by counting Thy-1-positive healthy cells); type: cell-based
Method: Cells were treated with the indicated compounds for 3 days. Survival was assayed by counting Thy-1-positive healthy cells. The asterisk * represents a significant difference from the control values by one-way ANOVA analysis of variance between groups, then Dunnett's test.
Adult Sprague-Dawley rats were euthanized by CO2 asphyxiation. Their eyes were enucleated and placed in NEUROBASAL™ medium (Gibco, Gaithersburg, Md.). The retina from each eye was detached and isolated. Retinal cells were dissociated by combining up to 20 retinae with 5 mL of papain solution containing 10 mg papain, 2 mg DL-cysteine, and 2 mg bovine serum albumin in 5 ml of NEUROBASAL™ medium, for 25 min at 37° C., then washed 3 times with 5 mL RGC medium (NEUROBASAL™) medium supplemented as cited in Example 2 and with 1% fetal calf serum. Retinal pieces were triturated by passing through a fire-polished disposable pipet several times until cells were dispersed. The cell suspension was placed onto a poly-D-lysine- and laminin-coated 8-well chambered culture slide. […] The cells were then cultured at 95% air/5% CO2 at 37° C. for three days.
At the end of the incubation period, the cells were fixed and labeled for Thy-1, a RGC marker, by immunocytochemistry. Cell survival was quantified by manually counting Thy-1-positive healthy cells in each well.

[2] = test system: quinone reductase, glutathione-S-transferase, and glutathione reductase; settings: various cell lines including human adult retinal pigment epithelial cells; cited from earlier work

| Compound | protection from glutamate-induced toxicity (survival of Thy-1-positive healthy cells) ([1]; sulforaphane 0.5 μM with glutamate 100 μM, 3 days, adult Sprague-Dawley rat RGC) | induction of detoxification enzymes [2] | reduction of the surviving cells ([1]; glutamate 100 μM for 3 days, adult rat RGC) |
| --- | --- | --- | --- |
| C[S+]([O-])CCCCN=C=S (stereo not drawn) [sulforaphane] | prevented such toxicity | known to induce quinone reductase, glutathione-S-transferase, and glutathione reductase |  |
| N[C@@H](CCC(=O)O)C(=O)O [glutamate] |  |  | 40-60% |
